The values below come from patent US20100292169A1, “METHODS AND COMPOSITIONS FOR REGULATING HDAC6 ACTIVITY” (Duke University, priority 2005, published 2010).

For one series, the system named is Hsp90-p23 interactions. Description: Hsp90-p23 co-immunoprecipitation in A549 cells. Type of series: cell-based. Particulars: treated for 4 hours or HDAC6 siRNA knockdown. The protocol: (§1) Immunoprecipitation and immunostaining. Cells were lysed as described previously (Hubbert et al., 2002). Hsp90 antibody was pre-incubated with rabbit-anti-mouse (Jackson Labs) and Protein-A Sepharose beads (Roche) for 10 minutes. The bead/antibody mix was added to 750 μg of whole cell lysate and incubated at 4° C. for 3 hours. Samples were washed 4 times with 150 mM NETN(Hubbert et al., 2002) and subjected to SDS-PAGE and immunoblotting analysis. Immunolocalization of GR and HDAC6 was described previously (Hubbert et al., 2002).
(§2) Studies were also conducted to identify the molecular basis for the regulation of Hsp90 function via HDAC6-mediated deacetylation. Because the proper folding of GR by Hsp90 depends on the association of Hsp90 with a distinct set of co-chaperones into a chaperone complex (Neckers, 2002; Pratt and Toft, 2003), a determination was made regarding whether Hsp90 acetylation affects Hsp90/co-chaperone assembly. The p23 protein (Johnson and Toft, 1994) is a co-chaperone that stabilizes the Hsp90-GR complex and is critical for GR ligand binding activity in vitro and in vivo (Dittmar et al., 1997; Morishima et al., 2003). Control A549 cells and HDAC6 siRNA knockdown cells (KD) were left untreated or treated for 4 hours with TSA or TPXb. Lysates were immunoprecipitated with α-Hsp90 antibody followed by immunoblotting with α-p23 antibody. […]

Another series deals with HDAC members. Particulars: cited from earlier work.
Another series relates to Hsp90. Description: Hsp90 acetylation: α-Hsp90 immunoprecipitation, α-AcK immunoblot, in A549 cells. The class given is cell-based. How it is done:
as §1
HDAC6 regulates Hsp90 acetylation. To investigate the possibility that HDAC6 functions as an Hsp90 deacetylase, a determination was made regarding whether over-expression of HDAC6 can lead to Hsp90 deacetylation in vivo. […] A basal level of Hsp90 acetylation could be detected in control A549 cell lines. […] The reactions were then subjected to SDS-PAGE and immunoblotted with the indicated antibodies).
Hsp90 hyperacetylation is induced by dexamethasone and correlated with the dissociation of functional […]. Experiments were conducted to determine whether Hsp90 acetylation is regulated by dexamethasone. Control and HDAC6 knockdown A549 cells were cultured in hormone free media for 24 hours, and then stimulated with dexamethasone for the indicated time in hours. […]
(Immunoblotting shows a protein as a band on a membrane.)

For a further series, the system named is Hsp90-GR complex. Kind of series: Hsp90-GR co-immunoprecipitation in A549 cells. The class given is cell-based. The note with it: TSA 4 hours or HDAC6 knockdown. The protocol:
as §1, §2

Series [1] has as its target glucocorticoid receptor (GR), endogenous, of A549 and 293T cells (human) (UniProt P04150). Description: cell-based or functional assay.
For the next series, the system named is p60^HOP and p50^cdc37. Description: Rescue of p60HOP and p50cdc37 levels by proteasome inhibition after loss of HDAC6. Type of series: cell-based. The text has this: Since p60^HOP and p50^cdc37 are critical co-chaperones for Hsp90 function, these observations provide further evidence that HDAC6 is required for full Hsp90 chaperone function.
For series [2], the target named is T1, mouse glucocorticoid receptor (mGR), full length (mouse, UniProt P06537 1-792).
T1 construct: stripped of chaperones with 0.5 M NaCl before reconstitution; also called mouse GR
T1 sequence (looked up): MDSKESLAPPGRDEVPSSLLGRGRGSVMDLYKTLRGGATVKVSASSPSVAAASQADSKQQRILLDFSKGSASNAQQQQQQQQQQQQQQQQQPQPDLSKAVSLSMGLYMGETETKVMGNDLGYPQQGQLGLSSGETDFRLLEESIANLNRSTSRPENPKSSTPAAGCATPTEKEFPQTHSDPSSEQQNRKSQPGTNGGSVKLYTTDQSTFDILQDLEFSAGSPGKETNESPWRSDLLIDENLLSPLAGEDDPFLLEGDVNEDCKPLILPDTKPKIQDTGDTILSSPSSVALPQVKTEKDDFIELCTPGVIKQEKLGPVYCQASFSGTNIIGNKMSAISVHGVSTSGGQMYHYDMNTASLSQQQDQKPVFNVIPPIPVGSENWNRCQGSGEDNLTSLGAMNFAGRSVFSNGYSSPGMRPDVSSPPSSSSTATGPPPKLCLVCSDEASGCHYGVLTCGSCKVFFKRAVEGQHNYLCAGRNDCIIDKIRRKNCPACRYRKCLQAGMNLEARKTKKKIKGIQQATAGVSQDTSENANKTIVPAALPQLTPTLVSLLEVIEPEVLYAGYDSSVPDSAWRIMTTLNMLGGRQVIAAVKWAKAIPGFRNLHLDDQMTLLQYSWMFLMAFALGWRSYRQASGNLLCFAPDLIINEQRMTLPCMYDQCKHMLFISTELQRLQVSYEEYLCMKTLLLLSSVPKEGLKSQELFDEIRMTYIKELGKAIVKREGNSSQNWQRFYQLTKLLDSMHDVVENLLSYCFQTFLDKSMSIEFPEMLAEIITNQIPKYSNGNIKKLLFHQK
Description: immunoadsorption of mGR from wild-type and HDAC6 knockdown 293T cells, immunoblot for coadsorbed p23 (within the GR.hsp90 complex). The source says:
Because an immunoadsorbing antibody against the human GR was not available, the mouse GR was transiently expressed in HEK cells.

Series [3] concerns the target acetylated (hyperacetylated) Hsp90 from HDAC6 knockdown or TSA-treated cells.

Square brackets hold non-standard residues; d marks the D form. Peptide text beside a SMILES is read from it. * marks the point of attachment. Aoe = N[C@@H](CCCCCC(=O)[C@@H]1CO1)C(=O)O; Cbz = O=C(OCc1ccccc1)*

On to `O=C1N[C@@H](Cc2ccccc2)C(=O)N2CCC[C@@H]2C(=O)N[C@@H](CCCCCC(=O)[C@@H]2CO2)C(=O)N[C@H]1Cc1ccccc1` [TPXb] (cyclo(FF[dP][Aoe])), for which the Hsp90-p23 interactions result in the series with Hsp90-p23 interactions is “had little effect”. In addition, the HDAC inhibition profile entry in the series on HDAC members is on record as “a potent inhibitor for all HDAC members except HDAC6”.

With `CC(/C=C/C(=O)NO)=C\[C@@H](C)C(=O)c1ccc(N(C)C)cc1` [trichostatin A], the “level of acetylated Hsp90” value in the series on Hsp90 (A549 cells, treated for 4 hours (TPXb 100 nM) or stably expressing siRNA) is “dramatic rise in the level of acetylated Hsp90”. Besides, the “Hsp90 acetylation in HDAC6 knockdown cells” value in the series with Hsp90 (HDAC6 knockdown A549 cells, TSA treatment) is reported as “little effect on Hsp90 acetylation”. Also, the Hsp90-p23 interactions result in the series with Hsp90-p23 interactions is “disrupted Hsp90-p23 interactions”. The “Hsp90 and GR interaction” value in the series on Hsp90-GR complex was “significantly reduced”.

For “acetylated (hyperacetylated) Hsp90 from HDAC6 knockdown or TSA-treated cells”, in series [1], the GR ligand binding activity ([^3H]dexamethasone bound in 293T cytosol) (fold reduction) was determined as 6.

For `CC(C)C[C@@H](C=O)NC(=O)[C@H](CC(C)C)NC(=O)[C@H](CC(C)C)NC(=O)OCc1ccccc1` [MG132] (Cbz-Leu-Leu-Leu-aldehyde), in the series with p60^HOP and p50^cdc37, the “rescue of the reduction of p60^HOP and p50^cdc37” value is “partially rescued”.

B1: p23 protein (Hsp90 co-chaperone), endogenous, of A549 and 293T cells (other, UniProt Q15185 1-160, looked up)
chain: MQPASAKWYDRRDYVFIEFCVEDSKDVNVNFEKSKLTFSCLGGSDNFKHLNEIDLFHCIDPNDSKHKRTDRSILCCLRKGESGQSWPRLTKERAKLNWLSVDFNNWKDWEDDSDEDMSNFDRFSEMMNNMGGDEDVDLPEVDGADDDSQDSDDEKMPDLE
In the case of B1, the binding result in series [2] is on record as “binds”.

B2: Flag-HDAC6 (FLAG-tagged wild-type HDAC6) (protein)
chain: MTSTGQDSTTTRQRRSRQNPQSPPQDSSVTSKRNIKKGAVPRSIPNLAEVKKKGKMKKLGQAMEEDLIVGLQGMDLNLEAEALAGTGLVLDEQLNEFHCLWDDSFPEGPERLHAIKEQLIQEGLLDRCVSFQARFAEKEELMLVHSLEYIDLMETTQYMNEGELRVLADTYDSVYLHPNSYSCACLASGSVLRLVDAVLGAEIRNGMAIIRPPGHHAQHSLMDGYCMFNHVAVAARYAQQKHRIRRVLIVDWDVHHGQGTQFTFDQDPSVLYFSIHRYEQGRFWPHLKASNWSTTGFGQGQGYTINVPWNQVGMRDADYIAAFLHVLLPVALEFQPQLVLVAAGFDALQGDPKGEMAATPAGFAQLTHLLMGLAGGKLILSLEGGYNLRALAEGVSASLHTLLGDPCPMLESPGAPCRSAQASVSCALEALEPFWEVLVRSTETVERDNMEEDNVEESEEEGPWEPPVLPILTWPVLQSRTGLVYDQNMMNHCNLWDSHHPEVPQRILRIMCRLEELGLAGRCLTLTPRPATEAELLTCHSAEYVGHLRATEKMKTRELHRESSNFDSIYICPSTFACAQLATGAACRLVEAVLSGEVLNGAAVVRPPGHHAEQDAACGFCFFNSVAVAARHAQTISGHALRILIVDWDVHHGNGTQHMFEDDPSVLYVSLHRYDHGTFFPMGDEGASSQIGRAAGTGFTVNVAWNGPRMGDADYLAAWHRLVLPIAYEFNPELVLVSAGFDAARGDPLGGCQVSPEGYAHLTHLLMGLASGRIILILEGGYNLTSISESMAACTRSLLGDPPPLLTLPRPPLSGALASITETIQVHRRYWRSLRVMKVEDREGPSSSKLVTKKAPQPAKPRLAERMTTREKKVLEAGMGKVTSASFGEESTPGQTNSETAVVALTQDQPSEAATGGATLAQTISEAAIGGAMLGQTTSEEAVGGATPDQTTSEETVGGAILDQTTSEDAVGGATLGQTTSEEAVGGATLAQTTSEAAMEGATLDQTTSEEAPGGTELIQTPLASSTDHQTPPTSPVQGTTPQISPSTLIGSLRTLELGSESQGASESQAPGEENLLGEAAGGQDMADSMLMQGSRGLTDQAIFYAVTPLPWCPHLVAVCPIPAAGLDVTQPCGDCGTIQENWVCLSCYQVYCGRYINGHMLQHHGNSGHPLVLSYIDLSAWCYYCQAYVHHQALLDVKNIAHQNKFGEDMPHPH
On to B2, for which, in series [3], the “in vitro deacetylation of acetylated Hsp90 (37° C., 60 minutes; α-AcK immunoblot)” value is “immuno-purified wild type but not catalytically inactive mutant HDAC6 can efficiently deacetylate acetylated Hsp90 in vitro” and the “restoration of stable GR.hsp90 heterocomplex assembly activity after incubation with immunopurified FLAG-HDAC6” value is “The stable heterocomplex assembly activity of purified knockdown cell hsp90 is restored to the level of purified wild-type hsp90 by incubation with immunopurified FLAG-HDAC6”.

B3: Flag-HDAC6-cat-mut (H216/611A, catalytically inactive mutant) (protein)
chain: MTSTGQDSTTTRQRRSRQNPQSPPQDSSVTSKRNIKKGAVPRSIPNLAEVKKKGKMKKLGQAMEEDLIVGLQGMDLNLEAEALAGTGLVLDEQLNEFHCLWDDSFPEGPERLHAIKEQLIQEGLLDRCVSFQARFAEKEELMLVHSLEYIDLMETTQYMNEGELRVLADTYDSVYLHPNSYSCACLASGSVLRLVDAVLGAEIRNGMAIIRPPGHAAQHSLMDGYCMFNHVAVAARYAQQKHRIRRVLIVDWDVHHGQGTQFTFDQDPSVLYFSIHRYEQGRFWPHLKASNWSTTGFGQGQGYTINVPWNQVGMRDADYIAAFLHVLLPVALEFQPQLVLVAAGFDALQGDPKGEMAATPAGFAQLTHLLMGLAGGKLILSLEGGYNLRALAEGVSASLHTLLGDPCPMLESPGAPCRSAQASVSCALEALEPFWEVLVRSTETVERDNMEEDNVEESEEEGPWEPPVLPILTWPVLQSRTGLVYDQNMMNHCNLWDSHHPEVPQRILRIMCRLEELGLAGRCLTLTPRPATEAELLTCHSAEYVGHLRATEKMKTRELHRESSNFDSIYICPSTFACAQLATGAACRLVEAVLSGEVLNGAAVVRPPGHAAEQDAACGFCFFNSVAVAARHAQTISGHALRILIVDWDVHHGNGTQHMFEDDPSVLYVSLHRYDHGTFFPMGDEGASSQIGRAAGTGFTVNVAWNGPRMGDADYLAAWHRLVLPIAYEFNPELVLVSAGFDAARGDPLGGCQVSPEGYAHLTHLLMGLASGRIILILEGGYNLTSISESMAACTRSLLGDPPPLLTLPRPPLSGALASITETIQVHRRYWRSLRVMKVEDREGPSSSKLVTKKAPQPAKPRLAERMTTREKKVLEAGMGKVTSASFGEESTPGQTNSETAVVALTQDQPSEAATGGATLAQTISEAAIGGAMLGQTTSEEAVGGATPDQTTSEETVGGAILDQTTSEDAVGGATLGQTTSEEAVGGATLAQTTSEAAMEGATLDQTTSEEAPGGTELIQTPLASSTDHQTPPTSPVQGTTPQISPSTLIGSLRTLELGSESQGASESQAPGEENLLGEAAGGQDMADSMLMQGSRGLTDQAIFYAVTPLPWCPHLVAVCPIPAAGLDVTQPCGDCGTIQENWVCLSCYQVYCGRYINGHMLQHHGNSGHPLVLSYIDLSAWCYYCQAYVHHQALLDVKNIAHQNKFGEDMPHPH
For the molecule B3, the “in vitro deacetylation of acetylated Hsp90 (37° C., 60 minutes; α-AcK immunoblot)” value in series [3] is “immuno-purified wild type but not catalytically inactive mutant HDAC6 can efficiently deacetylate acetylated Hsp90 in vitro”.
